According to patent US20230321042A1, “COMBINATION THERAPY” (PFIZER INC., priority 2020, published 2023):

Legend:
[1] = test system: T47D; experiment: 7-day anti-proliferation assay (CyQuant Direct) in T47D; type: cell-based; conditions: Homo sapiens, 168 h
Procedure: (§1) Functional effects of test compounds were measured in a 7-day anti-proliferation assay in three ER+ breast cancer cell lines. Cells were seeded in 96-well plates and allowed to adhere overnight prior to compound treatment.

[2] = test system: HCC1428; experiment: 7-day anti-proliferation assay (CyQuant Direct) in HCC1428; type: cell-based; conditions: Homo sapiens, 168 h; HCC1428, 7-day
Procedure: as §1

[3] = test system: MCF7; experiment: 7-day anti-proliferation assay (CyQuant Direct) in MCF7; type: cell-based; conditions: Homo sapiens, 168 h; MCF7, 7-day
Procedure: as §1

[4] = target: CDK6/Cyclin D3 (Homo sapiens (Human), UniProt Q00534); experiment: CDK6/Cyclin D3 mobility shift assay; type: biochemical; conditions: 3.5 mM ATP
Procedure: The mobility shift assay electrophoretically separates the fluorescently labelled peptides (substrate and phosphorylated product) following the kinase reaction. […] Typical reaction solutions contained 2% DMSO (± inhibitor), 2% glycerol, 10 mM MgCl2, 1 mM DTT, 3.5 mM ATP, 0.005% Tween 20 (TW-20), 3 µM 5-FAM-Dyrktide, 4 nM (active sites) activated CDK6/Cyclin D3 in 40 mM HEPES buffer at pH 7.5.
The reaction was stopped after 95 minutes by the addition of 50 µL of 30 mM EDTA. Ki determinations were made from a plot of the fractional velocity as a function of inhibitor concentration fit to the Morrison equation with the enzyme concentration as a variable.

[5] = In vivo study in MCF-7 breast cancer xenograft; conditions: female, mouse, po, BID, MCF7 xenograft model, NSG mice, read-out: maximum tolerated dose level
Procedure: The MCF7 model was established by implanting passage 0 tumor fragments into recipient mice. To establish the MCF7 donor mice, tumor cells (5 × 10^6 cells/mouse with 50% Cultrex® Basement Membrane Matrix) were subcutaneously implanted in female NSG mice. Once reaching a range of 700 to 800 mm^3, donor tumors were subsequently transplanted into secondary recipient mice for study expansion. […] TGI was assessed on Day 21 post first dose (or Day 42 post tumor fragment implant). […] In the 150 mpk combination group, 50% of mice were found dead or were euthanized by the end of 21 days due to severe anemia.

[6] = target: CDK4/Cyclin D1 (Homo sapiens (Human), UniProt P11802); experiment: CDK4/Cyclin D1 mobility shift assay; type: biochemical; conditions: 3.5 mM ATP
Sequence of CDK4/Cyclin D1 (P11802 whole entry): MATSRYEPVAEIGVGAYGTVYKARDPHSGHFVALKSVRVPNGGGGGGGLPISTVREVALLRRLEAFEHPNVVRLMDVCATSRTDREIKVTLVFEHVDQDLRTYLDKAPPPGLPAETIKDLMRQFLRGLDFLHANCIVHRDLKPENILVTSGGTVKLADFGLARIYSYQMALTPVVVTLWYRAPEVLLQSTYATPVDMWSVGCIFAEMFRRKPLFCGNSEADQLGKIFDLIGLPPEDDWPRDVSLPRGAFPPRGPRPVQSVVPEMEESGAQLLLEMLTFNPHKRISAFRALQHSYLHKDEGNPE
Sequence of CDK4/Cyclin D1 (P24385 whole entry partner): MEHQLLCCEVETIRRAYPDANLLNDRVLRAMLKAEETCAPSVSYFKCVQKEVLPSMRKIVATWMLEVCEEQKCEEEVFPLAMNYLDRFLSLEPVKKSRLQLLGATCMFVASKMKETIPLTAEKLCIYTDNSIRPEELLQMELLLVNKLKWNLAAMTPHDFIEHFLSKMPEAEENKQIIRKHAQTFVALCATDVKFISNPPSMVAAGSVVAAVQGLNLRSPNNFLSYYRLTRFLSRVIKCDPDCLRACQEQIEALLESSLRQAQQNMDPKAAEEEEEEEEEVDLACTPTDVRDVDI
Procedure: The purpose CDK4/Cyclin D1 assay is to evaluate the inhibition (% inhibition, Kiapp and Ki values) in the presence of small molecule inhibitors by using a fluorescence based microfluidic mobility shift assay. […] The mobility shift assay electrophoretically separates the fluorescently labelled peptides (substrate and phosphorylated product) following the kinase reaction. Both substrate and product are measured and the ratio of these values is used to generate % conversion of substrate to product by the LabChip EZ Reader. […] The reaction was stopped after 195 minutes by the addition of 50 µL of 30 mM EDTA. Ki determinations were made from a plot of the fractional velocity as a function of inhibitor concentration fit to the Morrison equation with the enzyme concentration as a variable.

Sequence of CDK6/Cyclin D3 (Q00534 whole entry): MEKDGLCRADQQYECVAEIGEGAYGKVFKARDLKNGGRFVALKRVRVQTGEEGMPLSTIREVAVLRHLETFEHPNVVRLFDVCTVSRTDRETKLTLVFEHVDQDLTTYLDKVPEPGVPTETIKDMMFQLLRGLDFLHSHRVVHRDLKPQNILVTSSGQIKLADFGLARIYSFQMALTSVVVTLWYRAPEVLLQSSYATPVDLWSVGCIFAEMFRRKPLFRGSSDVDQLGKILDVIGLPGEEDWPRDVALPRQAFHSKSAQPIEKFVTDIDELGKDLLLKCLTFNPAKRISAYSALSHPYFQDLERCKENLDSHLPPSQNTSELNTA
Sequence of CDK6/Cyclin D3 (P30281 whole entry partner): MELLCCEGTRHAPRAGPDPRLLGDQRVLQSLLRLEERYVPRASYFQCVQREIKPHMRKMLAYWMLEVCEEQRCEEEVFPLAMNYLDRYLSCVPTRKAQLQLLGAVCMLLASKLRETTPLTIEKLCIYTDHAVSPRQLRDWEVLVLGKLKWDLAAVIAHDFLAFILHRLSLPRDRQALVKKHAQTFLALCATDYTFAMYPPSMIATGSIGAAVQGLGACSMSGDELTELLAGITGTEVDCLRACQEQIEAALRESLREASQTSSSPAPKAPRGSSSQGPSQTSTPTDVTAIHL

Row | EC50 [1] [nM] | EC50 [2] [nM] | EC50 [3] [nM] | Ki [4] [µM] | Ki [6] [µM] | Structure (SMILES) | MTD at 21 days [5] [mg/kg]
1 | 220 | 790 | 190 | 0.254 | 0.107 | CC[C@H](C)NC(=O)O[C@@H]1CC[C@H](c2cc(NC(=O)Cc3ccccc3S(C)(=O)=O)n[nH]2)C1 [COMPOUND B, (1R,3S)-3-[3-({[2-(methylsulfonyl)phenyl]acetyl}amino)-1H-pyrazol-5-yl]cyclopentyl (2S)-butan-2-ylcarbamate] | –
2 | 443 | 710 | 336 | 0.215 | 0.149 | CCCNC(=O)O[C@@H]1CC[C@H](c2cc(NC(=O)Cc3ccnc(OC)c3)n[nH]2)C1 [COMPOUND C, (1R,3S)-3-(3-{[(2-methoxypyridin-4-yl)acetyl]amino}-1H-pyrazol-5-yl)cyclopentyl propylcarbamate] | –
3 | 87 | 355 | 79 | – | – | CC(=O)c1c(C)c2cnc(Nc3ccc(N4CCNCC4)cn3)nc2n(C2CCCC2)c1=O [Palbociclib, 6-acetyl-8-cyclopentyl-5-methyl-2-(5-piperazin-1-yl-pyridin-2-ylamino)-8H-pyrido[2,3-d]pyrimidin-7-one, reference compound] | –

Row | Structure (SMILES) | EC50 [1] [nM] | EC50 [2] [nM] | EC50 [3] [nM] | Ki [4] [µM] | Ki [6] [µM] | MTD at 21 days [5] [mg/kg]
4 | COCc1cc(C(=O)Nc2cc([C@H]3CC[C@@H](OC(=O)NC(C)C)C3)[nH]n2)n(C)n1 [COMPOUND A, (1R,3S)-3-[3-({[3-(methoxymethyl)-1-methyl-1H-pyrazol-5-yl]carbonyl}amino)-1H-pyrazol-5-yl]cyclopentyl propan-2-ylcarbamate] | 403 | > 1000 | 386 | 0.465 | – | 150
